# Measured values: ChEMBL document CHEMBL1201862, “PubChem BioAssay data set” (2004)
# Active and inactive are the calls of the source.
# What was measured:
# [1] = off-target signal loss in HeLa-CEM21 co-culture – HeLa F-luc CTL cells, cherry-picked, counter-screen for HIV-1 Env fusion inhibitor project, dose response (AID 652040); type: functional, cell-based;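 note: potency for signal decrease marking cytotoxic or nonspecific inhibition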
# [2] = Luminescence Cell-Based Dose Confirmation HTS to Identify Inhibitors of Platelet Dense Granule Release. [Related pubchem assays: 1663 (Primary HTS), 1678 (Summary of Project)]; type: functional
# [3] = blockers of HIV-1 ZM109 envelope-driven cell-cell fusion – HeLa effector, CEM target cells, luciferase, cherry-pick, dose response (AID 652058); type: functional, cell-based;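 note: luciferase signal from HIV-1 Env mediated cell-cell fusion of effector and target cells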
# [4] = HIV-1 AD8 envelope cell-cell fusion blockers – cherry-pick, dose response (AID 652062); type: functional, cell-based;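 note: luciferase signal from cell-cell fusion driven by HIV-1 clade B AD8 Env; potency is for inhibitors of fusion seen as a drop in luminescence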
# [5] = biological target: Luciferin 4-monooxygenase (Photinus pyralis, UniProt P08659); experiment: inhibition of purified Photinus pyralis luciferase – biochemical, luminescence, dose response (AID 1891)
# [6] = blockers of HIV-1 envelope-mediated cell-cell fusion – cherry-pick, dose response (AID 652057); type: functional, cell-based
# Fatty acid synthase [7] = biological target: T1, Fatty acid synthase (Homo sapiens, UniProt P49327); experiment: inhibition of human FAS-TE enzyme activity – biochemical, kinetic fluorescence intensity, dose response (AID 624326); type: functional;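 note: rate of fluorescence rise from hydrolysis of a fluorogenic O-methyl fluorescein ester substrate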
# Fatty acid synthase [8] = biological target: T1, Fatty acid synthase; experiment: inhibition of human FAS-TE enzyme activity – biochemical, endpoint fluorescence intensity, uHTS hits, dose response (AID 624327); type: functional;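 note: fluorescence from hydrolysis of an O-methyl fluorescein acyl ester substrate by the enzyme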
# [9] = biological target: T2, Short transient receptor potential channel 4 (Mus musculus, UniProt Q9QUQ5); experiment: block of DAMGO-driven TRPC4 calcium entry – cell-based, HEK293 TRPC4/mu-opioid, Fluo-4 calcium, dose response (AID 434942); type: functional;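 note: potency of inhibitors blocking the TRPC4 calcium response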
# T2 sequence (Q9QUQ5 whole entry): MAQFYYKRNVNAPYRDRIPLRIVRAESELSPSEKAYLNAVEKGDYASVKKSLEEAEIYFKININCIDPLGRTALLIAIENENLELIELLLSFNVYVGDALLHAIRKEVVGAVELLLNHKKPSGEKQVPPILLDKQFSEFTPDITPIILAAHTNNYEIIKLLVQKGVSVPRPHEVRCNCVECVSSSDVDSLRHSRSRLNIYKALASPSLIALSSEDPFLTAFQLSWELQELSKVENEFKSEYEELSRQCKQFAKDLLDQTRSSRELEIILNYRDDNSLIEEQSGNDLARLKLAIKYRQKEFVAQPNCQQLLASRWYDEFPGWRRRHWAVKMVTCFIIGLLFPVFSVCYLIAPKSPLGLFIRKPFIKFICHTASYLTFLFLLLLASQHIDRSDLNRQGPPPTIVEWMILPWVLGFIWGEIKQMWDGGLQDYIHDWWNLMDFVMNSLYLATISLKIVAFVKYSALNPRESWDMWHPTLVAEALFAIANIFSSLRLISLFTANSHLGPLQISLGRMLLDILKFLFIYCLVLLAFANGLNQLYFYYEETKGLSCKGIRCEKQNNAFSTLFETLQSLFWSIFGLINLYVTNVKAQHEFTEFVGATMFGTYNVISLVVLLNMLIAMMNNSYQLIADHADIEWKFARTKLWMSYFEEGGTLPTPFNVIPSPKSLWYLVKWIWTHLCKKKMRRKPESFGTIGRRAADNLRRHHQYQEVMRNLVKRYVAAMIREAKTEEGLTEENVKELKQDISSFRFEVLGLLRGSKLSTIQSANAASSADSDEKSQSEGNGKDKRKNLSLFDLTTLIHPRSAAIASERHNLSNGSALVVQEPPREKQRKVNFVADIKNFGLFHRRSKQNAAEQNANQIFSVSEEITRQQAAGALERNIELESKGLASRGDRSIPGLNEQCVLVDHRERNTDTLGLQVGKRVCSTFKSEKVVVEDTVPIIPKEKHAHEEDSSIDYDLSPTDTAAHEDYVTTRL
# [10] = biological target: T3, RNA-binding protein pos-1 (Caenorhabditis elegans, UniProt G5EF15); experiment: disruptors of C. elegans POS-1 RNA interaction – biochemical, fluorescence polarization, dose response (AID 1964);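 note: purified POS-1 fused to maltose binding protein made in E. coli; potency of compounds blocking POS-1 binding to fluorescent RNA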
# T3 sequence (G5EF15 whole entry): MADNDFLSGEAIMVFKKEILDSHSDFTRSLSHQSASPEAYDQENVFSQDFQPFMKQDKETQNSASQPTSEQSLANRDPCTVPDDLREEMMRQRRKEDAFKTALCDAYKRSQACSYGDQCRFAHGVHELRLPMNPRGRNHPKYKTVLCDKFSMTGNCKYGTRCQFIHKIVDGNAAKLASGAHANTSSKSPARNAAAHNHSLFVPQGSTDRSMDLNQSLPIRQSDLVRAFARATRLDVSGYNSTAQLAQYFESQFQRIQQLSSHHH
# [11] = microbe, parasite or virus in culture; type: functional; details: Mycobacterium tuberculosis
# [12] = biological target: T4, Zinc finger protein mex-5 (Caenorhabditis elegans, UniProt Q9XUB2); experiment: potency of MEX-5 RNA-binding blockers – biochemical, C. elegans, fluorescence polarization, dose response (AID 1960)
# T4 sequence (Q9XUB2 whole entry): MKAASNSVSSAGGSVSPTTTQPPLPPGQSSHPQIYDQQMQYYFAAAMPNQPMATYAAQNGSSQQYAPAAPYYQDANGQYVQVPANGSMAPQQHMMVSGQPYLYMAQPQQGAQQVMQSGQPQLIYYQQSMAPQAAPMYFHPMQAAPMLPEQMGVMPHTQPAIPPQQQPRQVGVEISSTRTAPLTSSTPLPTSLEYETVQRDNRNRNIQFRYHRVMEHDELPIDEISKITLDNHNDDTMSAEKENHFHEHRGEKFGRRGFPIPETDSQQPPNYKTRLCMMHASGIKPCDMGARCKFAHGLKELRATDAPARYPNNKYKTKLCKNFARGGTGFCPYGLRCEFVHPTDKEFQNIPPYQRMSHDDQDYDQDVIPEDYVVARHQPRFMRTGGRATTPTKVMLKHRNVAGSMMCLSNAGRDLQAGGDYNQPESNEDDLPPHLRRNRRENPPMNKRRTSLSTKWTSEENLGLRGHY
# [13] = viability of HCT116 lacking mutant beta-catenin – cell-based, human colon tumor, dose response (AID 1045); type: functional;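 note: HCT116 colon tumor cells with beta catenin knocked out; cells exposed to compound for 60 hours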
# [14] = NIH3T3 cell viability loss – ATP luminescence, mouse fibroblasts, counter-screen, dose response (AID 2010); type: functional, cell-based;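 note: cells exposed to compound for about 90 hours before reading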
# [15] = viability of PTEN-deleted HCT116 cells – cell-based, HCT116 PTEN knockout, dose response (AID 1047); type: functional;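 note: HCT116 colon tumor cells with PTEN knocked out; cells exposed to compound for 60 hours before readout; potency for loss of cell viability measured by luminescence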
# [16] = Trypanosoma cruzi growth suppression in host cells – NIH3T3 host cells, beta-gal luminescence, confirmation (AID 2044); type: functional, cell-based;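 note: intracellular parasites grown in NIH/3T3 mouse fibroblasts as host cells; luminescent beta-galactosidase reporter signal from transgenic T. cruzi replicating inside host cells; inhibitors lower the luminescence signal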
# [17] = blockade of melanocortin 4 receptor signaling – cell-based, plate reader, cherry pick, counter-screen for LGR2 antagonist project, dose response (AID 743444); type: functional;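 note: transfected HEK 293 cells stimulated with alpha-MSH peptide; potency of inhibitors of the alpha-MSH evoked signal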
# [18] = A549 cell cytotoxicity, dose response, cytotoxicity control, plate reader, cherry-pick, antagonist series (AID 743412); type: functional, cell-based
# [19] = biological target: Induced myeloid leukemia cell differentiation protein Mcl-1 (Homo sapiens, UniProt Q07820); type: functional
# cells [20] = type: functional, cell-based
# BJ [21] = experiment: BJ-TERT-LT-ST fibroblast viability loss – cell-based, RAS-independent, luminescence, dose response (AID 1935); type: functional; details: Homo sapiens;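 note: BJ fibroblasts immortalized with TERT plus LT and ST oncogenes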
# INS1 = experiment: INS-1E survival protection against cytokine death – cell-based, luminescence, retest, dose response (AID 449756); type: functional; details: Rattus norvegicus;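 note: cell death triggered by IL-1 beta plus TNF-alpha plus IFN-gamma mixture; protective hits raise ATP signal compared with cytokine alone wells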
# [22] = DRD fibroblast viability loss – cell-based, non-viral oncogenic, luminescence, dose response (AID 1934); type: functional; details: Homo sapiens
# Paired box protein Pax-8 = Paired box protein Pax-8 (Homo sapiens, UniProt Q06710); experiment: PAX8 transcriptional activity inhibition in RMG-I – RMG-I cells, luciferase, cherry-pick, dose response (AID 687027); type: functional, cell-based;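 note: luciferase reporter driven by Pax8 target thyroperoxidase promoter measured by SteadyGlo luminescence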
# [23] = biological target: T5, Polyadenylate-binding protein 1 (Homo sapiens, UniProt P11940); experiment: MLLE domain peptide-binding blockers, IC50 – biochemical, fluorescence polarization, FITC-PAM2 peptide, dose response (AID 602259); type: functional; details: read-out: IC50_Mean
# [24] = biological target: Heat shock protein HSP 90-alpha (Homo sapiens, UniProt P07900); type: functional, organism-based
# BJ [25] = experiment: cells; type: functional, cell-based; details: Homo sapiens
# BJ [26] = experiment: BJ-TERT fibroblast viability loss – cell-based, RAS-independent, luminescence, dose response (AID 1933); type: functional; details: Homo sapiens
# cells [27] = type: functional, cell-based; remark: listed apart in the source
# [28] = biological target: T5, Polyadenylate-binding protein 1; experiment: MLLE binding blockers, Cy5 peptide tracer – biochemical, fluorescence polarization, Cy5-PAM2 peptide, secondary, miRNA deadenylation inhibitor project, dose response (AID 602260); type: functional; details: read-out: IC50_Mean
# [29] = alpha-synuclein stem-loop luciferase translation blockers – H4 neuroglioma cells, luminescence, confirmation (AID 1988); type: functional, cell-based
# [30] = Luminescence Cell-Based Dose Response HTS to Identify Inhibitors of 5'UTR Stem-Loop Driven Prion Protein mRNA Translation in H4 Neuroglioblastoma Cells. [Related pubchem assays: 1827 (Project Summary), 1813 (Primary HTS)]; type: functional
# [31] = luciferase reporter signal suppression in cells – H4 neuroglioma cells, luminescence, dose response (AID 1990); type: functional, cell-based
# T1 sequence (P49327 whole entry): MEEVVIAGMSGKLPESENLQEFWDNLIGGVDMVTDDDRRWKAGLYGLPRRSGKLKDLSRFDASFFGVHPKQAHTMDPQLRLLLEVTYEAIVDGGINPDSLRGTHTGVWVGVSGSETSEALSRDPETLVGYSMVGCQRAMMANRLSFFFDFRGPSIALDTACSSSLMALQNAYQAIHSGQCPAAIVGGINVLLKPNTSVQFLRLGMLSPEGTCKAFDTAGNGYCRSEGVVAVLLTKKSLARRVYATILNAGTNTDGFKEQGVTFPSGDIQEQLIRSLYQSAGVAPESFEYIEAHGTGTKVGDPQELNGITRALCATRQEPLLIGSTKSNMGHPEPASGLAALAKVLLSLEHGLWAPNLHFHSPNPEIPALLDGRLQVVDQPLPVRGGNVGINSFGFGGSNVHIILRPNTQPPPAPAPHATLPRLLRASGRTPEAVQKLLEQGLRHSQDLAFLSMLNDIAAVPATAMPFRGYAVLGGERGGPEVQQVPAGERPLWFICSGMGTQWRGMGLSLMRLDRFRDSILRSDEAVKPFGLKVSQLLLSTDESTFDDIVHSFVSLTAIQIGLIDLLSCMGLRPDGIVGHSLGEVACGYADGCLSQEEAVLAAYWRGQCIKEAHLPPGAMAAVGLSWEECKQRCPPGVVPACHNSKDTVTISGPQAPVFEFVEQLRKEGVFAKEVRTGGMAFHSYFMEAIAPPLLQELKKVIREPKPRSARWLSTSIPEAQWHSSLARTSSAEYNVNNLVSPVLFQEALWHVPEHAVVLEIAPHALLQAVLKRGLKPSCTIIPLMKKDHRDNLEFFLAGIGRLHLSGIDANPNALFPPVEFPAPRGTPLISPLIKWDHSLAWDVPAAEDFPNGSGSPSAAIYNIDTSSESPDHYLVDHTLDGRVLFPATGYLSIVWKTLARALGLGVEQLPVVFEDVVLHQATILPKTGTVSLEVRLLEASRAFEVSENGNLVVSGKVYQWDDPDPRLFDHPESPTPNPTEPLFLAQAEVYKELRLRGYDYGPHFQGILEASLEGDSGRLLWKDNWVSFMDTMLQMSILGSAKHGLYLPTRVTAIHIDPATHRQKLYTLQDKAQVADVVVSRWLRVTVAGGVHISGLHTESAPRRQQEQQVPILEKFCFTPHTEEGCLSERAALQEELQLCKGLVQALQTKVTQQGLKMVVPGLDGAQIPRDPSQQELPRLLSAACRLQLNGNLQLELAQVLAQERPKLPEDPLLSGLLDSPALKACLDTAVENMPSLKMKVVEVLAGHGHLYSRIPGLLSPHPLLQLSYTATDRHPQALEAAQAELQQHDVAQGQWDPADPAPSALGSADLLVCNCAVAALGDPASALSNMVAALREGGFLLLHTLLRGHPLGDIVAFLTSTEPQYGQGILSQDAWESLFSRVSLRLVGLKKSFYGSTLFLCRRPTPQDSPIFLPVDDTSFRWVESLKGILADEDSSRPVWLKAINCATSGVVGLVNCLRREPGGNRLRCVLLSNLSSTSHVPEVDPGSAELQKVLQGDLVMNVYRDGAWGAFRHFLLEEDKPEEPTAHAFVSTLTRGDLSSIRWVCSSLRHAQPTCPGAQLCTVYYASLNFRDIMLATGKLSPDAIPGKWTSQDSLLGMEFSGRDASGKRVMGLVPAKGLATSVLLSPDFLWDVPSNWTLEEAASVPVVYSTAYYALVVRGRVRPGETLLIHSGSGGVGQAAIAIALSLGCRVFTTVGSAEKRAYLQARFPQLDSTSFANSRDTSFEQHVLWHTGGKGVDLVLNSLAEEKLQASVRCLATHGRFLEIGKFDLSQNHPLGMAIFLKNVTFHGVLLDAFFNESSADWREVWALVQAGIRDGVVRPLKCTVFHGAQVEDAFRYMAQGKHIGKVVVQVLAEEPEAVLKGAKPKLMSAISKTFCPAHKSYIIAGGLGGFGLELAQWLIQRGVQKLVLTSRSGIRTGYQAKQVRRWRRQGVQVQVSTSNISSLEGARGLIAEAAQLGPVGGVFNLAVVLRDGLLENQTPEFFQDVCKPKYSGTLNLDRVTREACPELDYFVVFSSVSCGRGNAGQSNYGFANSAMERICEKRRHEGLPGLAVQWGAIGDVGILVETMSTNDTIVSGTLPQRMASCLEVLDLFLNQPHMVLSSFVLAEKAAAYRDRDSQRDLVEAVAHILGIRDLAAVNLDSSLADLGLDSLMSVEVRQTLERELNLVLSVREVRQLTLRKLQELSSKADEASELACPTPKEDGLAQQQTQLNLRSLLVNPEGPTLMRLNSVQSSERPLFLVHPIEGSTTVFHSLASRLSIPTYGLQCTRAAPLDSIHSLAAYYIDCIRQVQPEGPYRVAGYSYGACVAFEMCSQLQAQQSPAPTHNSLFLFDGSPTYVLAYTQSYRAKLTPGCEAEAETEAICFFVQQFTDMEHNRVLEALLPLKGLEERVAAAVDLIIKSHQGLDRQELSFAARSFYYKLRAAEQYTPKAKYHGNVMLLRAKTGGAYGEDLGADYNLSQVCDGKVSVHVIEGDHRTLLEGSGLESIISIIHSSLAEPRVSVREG
# T5 sequence (P11940 whole entry, the tested form may be a part): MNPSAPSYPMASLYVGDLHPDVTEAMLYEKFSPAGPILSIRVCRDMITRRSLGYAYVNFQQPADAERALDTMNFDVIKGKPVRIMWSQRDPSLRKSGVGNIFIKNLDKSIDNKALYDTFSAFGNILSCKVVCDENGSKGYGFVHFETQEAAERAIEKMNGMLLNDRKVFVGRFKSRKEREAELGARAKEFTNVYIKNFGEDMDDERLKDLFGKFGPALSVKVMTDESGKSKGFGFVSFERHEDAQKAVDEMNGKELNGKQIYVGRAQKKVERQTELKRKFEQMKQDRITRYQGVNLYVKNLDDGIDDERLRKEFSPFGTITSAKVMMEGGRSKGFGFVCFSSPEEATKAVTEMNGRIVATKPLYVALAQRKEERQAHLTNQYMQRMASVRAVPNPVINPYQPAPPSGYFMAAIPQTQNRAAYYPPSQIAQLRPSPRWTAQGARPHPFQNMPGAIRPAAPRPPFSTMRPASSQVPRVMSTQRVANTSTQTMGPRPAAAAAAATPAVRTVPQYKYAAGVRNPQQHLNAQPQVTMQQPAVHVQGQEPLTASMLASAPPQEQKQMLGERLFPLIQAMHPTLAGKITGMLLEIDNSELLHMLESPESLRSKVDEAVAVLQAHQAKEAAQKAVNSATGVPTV
# Chain of Luciferin 4-monooxygenase (P08659 whole entry, the tested form may be a part): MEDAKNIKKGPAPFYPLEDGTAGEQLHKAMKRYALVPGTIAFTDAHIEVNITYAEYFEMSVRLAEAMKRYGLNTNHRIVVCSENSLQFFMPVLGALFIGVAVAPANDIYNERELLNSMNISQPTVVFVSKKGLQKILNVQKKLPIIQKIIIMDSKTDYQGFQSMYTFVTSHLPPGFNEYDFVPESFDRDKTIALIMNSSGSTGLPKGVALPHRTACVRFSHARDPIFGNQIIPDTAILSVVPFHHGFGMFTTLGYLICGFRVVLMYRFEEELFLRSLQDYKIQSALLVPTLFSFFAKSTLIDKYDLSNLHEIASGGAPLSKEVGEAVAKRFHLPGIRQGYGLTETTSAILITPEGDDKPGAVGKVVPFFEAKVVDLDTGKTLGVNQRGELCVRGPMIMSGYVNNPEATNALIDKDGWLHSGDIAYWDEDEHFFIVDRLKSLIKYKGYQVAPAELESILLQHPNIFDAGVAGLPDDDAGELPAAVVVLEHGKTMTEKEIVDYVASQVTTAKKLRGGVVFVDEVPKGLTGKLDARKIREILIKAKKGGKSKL
# Chain of Induced myeloid leukemia cell differentiation protein Mcl-1 (Q07820 whole entry): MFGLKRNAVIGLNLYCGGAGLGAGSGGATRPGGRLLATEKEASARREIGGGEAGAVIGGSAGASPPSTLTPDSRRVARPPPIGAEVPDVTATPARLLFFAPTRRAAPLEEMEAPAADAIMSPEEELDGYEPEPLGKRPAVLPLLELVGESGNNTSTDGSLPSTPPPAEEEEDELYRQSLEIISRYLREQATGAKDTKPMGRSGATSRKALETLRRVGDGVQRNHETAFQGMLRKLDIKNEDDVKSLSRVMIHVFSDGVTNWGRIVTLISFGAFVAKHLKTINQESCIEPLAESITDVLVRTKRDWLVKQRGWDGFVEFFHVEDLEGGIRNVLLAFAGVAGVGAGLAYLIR
# Chain of Paired box protein Pax-8 (Q06710 whole entry, the tested form may be a part): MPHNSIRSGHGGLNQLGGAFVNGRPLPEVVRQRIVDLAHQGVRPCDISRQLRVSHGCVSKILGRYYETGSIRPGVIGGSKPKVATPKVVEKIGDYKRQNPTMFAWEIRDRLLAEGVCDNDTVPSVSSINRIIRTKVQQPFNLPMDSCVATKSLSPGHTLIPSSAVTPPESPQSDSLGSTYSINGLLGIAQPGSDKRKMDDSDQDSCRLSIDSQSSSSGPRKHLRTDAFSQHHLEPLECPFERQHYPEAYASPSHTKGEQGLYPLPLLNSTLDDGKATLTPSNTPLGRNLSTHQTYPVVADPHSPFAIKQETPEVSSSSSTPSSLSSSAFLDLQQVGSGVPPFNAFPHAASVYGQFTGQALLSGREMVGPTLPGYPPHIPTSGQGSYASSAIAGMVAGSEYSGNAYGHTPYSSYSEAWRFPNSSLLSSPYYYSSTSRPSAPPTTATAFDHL
smiles,measurement,setting,value
COc1ccc(Cl)cc1NC(=O)Nc1cnccn1,AC50,[1],2.19 µM (active)
same,EC50,[2],> 112 µM (not active)
same,AC50,[3],37.9 µM (active)
same,AC50,[4],14.2 µM (active)
same,EC50,[5],> 112 µM (not active)
same,AC50,[6],3.57 µM (active)
O=C(O)CC(NC(=O)CCC1CCCCC1)c1cc([N+](=O)[O-])ccc1Cl (centres undefined),IC50,Fatty acid synthase [7],8.7 µM (active)
same,IC50,Fatty acid synthase [8],10.7 µM (active)
CC(C1CC2CCC1C2)n1c(S)nnc1-c1cccs1 (centres undefined),EC50,[9],2.66 µM (active)
CCCCc1ccc(NC(=O)CSC2=NN3CCCC(=O)N=C3S2)cc1,EC50,[10],> 300 µM (not active)
same,CC50,[11],> 40 µM (active)
same,EC50,[12],> 300 µM (not active)
N#CCCSc1nc(N2CCOCC2)c2c(c1C#N)CCCC2,IC50,Fatty acid synthase [7],5.49 µM (active)
same,IC50,Fatty acid synthase [8],7.57 µM (active)
CNC(=S)N(Cc1ccc(OC)cc1)C1CC(=O)N(c2ccc(Cl)cc2)C1=O (centres undefined),IC50,Fatty acid synthase [7],9.36 µM (active)
same,IC50,Fatty acid synthase [8],11 µM (active)
CC(C)CCNC(=O)C(c1ccc(O)cc1)N(Cc1cccs1)C(=O)C1COc2ccccc2O1 (centres undefined),EC50,[13],21.4 µM (active)
same,EC50,[14],> 60 µM (inconclusive)
same,EC50,[15],19.5 µM (active)
same,EC50,[16],1.58 µM (active)
same,AC50,[17],35.3 µM (active)
same,AC50,[18],> 52 µM (inactive)
Cc1ccc(-n2nc(-c3cccs3)cc2C(=O)NCC2CCCO2)c(C)c1 (centres undefined),EC50,[9],4.73 µM (active)
CCN(CC)S(=O)(=O)c1ccc(N2CCCC2)c(NC(=O)Cc2cc(OC)c(OC)c(OC)c2)c1,AC50,[1],6.7 µM (active)
same,AC50,[3],5.2 µM (active)
same,AC50,[4],7.04 µM (active)
same,AC50,[6],3.42 µM (active)
CCOCCCNCc1cc(Br)ccc1OCc1ccccc1,EC50,[9],1.33 µM (active)
COc1ccc2nc(Nc3sc4c(c3C(N)=O)CCCC4)sc2c1,IC50,[19],8.79 µM (active)
Oc1ccc2ccccc2c1N=Nc1nccs1,EC50,cells [20],40.5 µM (active)
same,EC50,BJ [21],2.91 µM (active)
same,AC50,INS1,0.666 µM (active)
same,EC50,[22],10.3 µM (active)
same,AC50,Paired box protein Pax-8,2.92 µM (active)
same,IC50,[23],> 66 µM (inactive)
same,AC50,[24],0.932 µM (active)
same,CC50,[11],17.8 µM (active)
same,EC50,BJ [25],2.03 µM (active)
same,EC50,BJ [26],1.32 µM (active)
same,EC50,cells [27],40.4 µM (active)
same,IC50,[28],> 66 µM (inactive)
Cc1ccc(Cn2nnnc2CN2CCC(c3nc4cc(Cl)ccc4[nH]3)CC2)cc1,EC50,[29],2.45 µM (active)
same,EC50,[30],10.5 µM (active)
same,AC50,[3],2.37 µM (active)
same,EC50,[31],7.23 µM (active)
same,CC50,[11],6.84 µM (active)
same,AC50,[6],19.5 µM (active)
O=C(NCc1ccccc1)/C(=C\c1cccc([N+](=O)[O-])c1)NC(=O)c1ccco1,IC50,Fatty acid synthase [7],4.06 µM (active)
same,IC50,Fatty acid synthase [8],5.46 µM (active)
